The values that follow come from ChEMBL document CHEMBL1157067, “Agelastatin E, agelastatin F, and benzosceptrin C from the marine sponge Agelas dendromorpha” (2010).

Structures are written as SMILES. Activity calls are given as the source filed them. The calls are words filed in the database; no cut-off is given here.

The subject of assay [1] is KB. Nature of the assay: Cytotoxicity against human KB cells at 30 uM. It counts as functional.
Assay [2] deals with KB. Nature of the assay: Cytotoxicity against human KB cells at 3 uM. Format: functional.

Regarding `N=C1N=C(NCCS(=O)(=O)O)/C(=C/CCNC(=O)c2cc(Br)c(Br)[nH]2)N1`, the outcome with KB [1] was inactive.

`C[C@]1(COC(=O)c2cc(Br)c[nH]2)C[C@@H](C(=O)O)N=CN1`: in the assay with KB [1], the result was inactive.

For `NC(=O)c1cc(Br)c(Br)[nH]1`, in the assay on KB [1], the outcome was inactive.

`O=C1NCC(O)n2c1cc(Br)c2Br` (centres undefined): in the assay with KB [1], the outcome was inactive.

For `N=C1N=C(NCCS(=O)(=O)O)/C(=C/C(O)CNC(=O)c2cc(Br)c(Br)[nH]2)N1` (centres undefined), in the assay with KB [1], the result was inactive.

On to `CN1C(=O)N[C@H]2[C@@H]3NC(=O)c4ccc(Br)n4[C@@H]3C[C@]21O` [AGELASTATIN A], for which the Activity with KB [1] and in the assay with KB [2] was 100% in each case.

Turning to `O=C1N[C@H]2[C@@H]3NC(=O)c4cc(Br)c(Br)n4[C@@H]3C[C@@]2(O)N1`, in the assay on KB [1], the outcome was inactive.

Consider `c1ccc2c(-c3c[nH]c(-c4c[nH]c5ccccc45)n3)c[nH]c2c1`, for which the outcome in the assay with KB [1] was inactive.

Turning to `Nc1nc([C@H]2[C@H](CNC(=O)c3cc(Br)c[nH]3)[C@@H](CNC(=O)c3cc(Br)c[nH]3)[C@@H]2c2c[nH]c(N)n2)c[nH]1`, the result with KB [1] was inactive.

`O=C1N[C@H]2[C@@H]3NC(=O)c4ccc(Br)n4[C@@H]3C[C@@]2(O)N1`: the result in the assay on KB [1] was inactive.

Regarding `Cc1c[nH]c(=O)[nH]c1=O`, in the assay with KB [1], the result was inactive.

For the compound `Nc1nc2c([nH]1)c1c(c3[nH]c(N)nc32)[C@H](CNC(=O)c2cc(Br)c(Br)[nH]2)[C@H]1CNC(=O)c1cc(Br)c(Br)[nH]1`, in the assay with KB [1], the result was inactive.

With `CO[C@@]12C[C@@H]3[C@@H](NC(=O)c4ccc(Br)n43)[C@@H]1NC(=O)N2C`, the outcome in the assay on KB [1] was inactive.
